Experimental data published in ChEMBL document CHEMBL1141649, “Inhaled adenosine A(2A) receptor agonists for the treatment of chronic obstructive pulmonary disease” (Bioorg Med Chem Lett, 2008).
pIC50: −log10 of the molar value. One block for each compound: values may come before it. Activity calls are given as the source filed them. No cut-off for these calls is given here.

Legend:
[1] = molecular target: Adenosine receptor A2a (Homo sapiens, UniProt P29274); assay: Agonist activity at adenosine A2A receptor; format: functional
Chain of Adenosine receptor A2a (P29274 whole entry): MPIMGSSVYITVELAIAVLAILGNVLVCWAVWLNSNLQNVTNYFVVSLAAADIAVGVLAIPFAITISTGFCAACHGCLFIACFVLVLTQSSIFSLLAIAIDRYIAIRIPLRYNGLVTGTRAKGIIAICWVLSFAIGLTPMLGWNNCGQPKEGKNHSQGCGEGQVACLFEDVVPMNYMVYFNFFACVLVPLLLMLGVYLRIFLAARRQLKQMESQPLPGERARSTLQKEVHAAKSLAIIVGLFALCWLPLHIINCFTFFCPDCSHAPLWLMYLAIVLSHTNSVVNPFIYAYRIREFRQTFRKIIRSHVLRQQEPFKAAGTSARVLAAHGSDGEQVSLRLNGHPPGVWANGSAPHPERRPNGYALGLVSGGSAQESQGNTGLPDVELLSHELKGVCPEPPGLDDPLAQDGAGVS

[2] = Clearance in rat at 1 mg/kg, iv; format: ADME, organism-based; parameters: dose 1 mg/kg, route intravenous; details: in vivo
[3] = Membrane permeability by PAMPA assay; format: ADME; details: read-out: permeability
[4] = test system: Rattus norvegicus; assay: Unbound clearance in rat at 1 mg/kg, iv; format: ADME, organism-based; parameters: dose 1 mg/kg, route intravenous; details: in vivo
[5] = Cmax in intratracheally dosed rat at 1 mg/kg; format: ADME, organism-based; parameters: dose 1 mg/kg, route endotracheal; details: in vivo, inhaled or intranasal
[6] = Distribution coefficient, log D at pH 7.4; format: physicochemical; details: octanol/water
[7] = Intrinsic clearance in human liver microsomes; format: ADME, Microsome
[8] = test system: Neutrophil; assay: Inhibition of […]-induced super oxide production in human neutrophils; format: functional, cell-based
[9] = organism: Cavia porcellus; assay: Inhibition of capsaicin-induced bronchoconstriction in guinea pig after 15 mins; format: functional, organism-based
[10] = organism: Cavia porcellus; assay: Toxicity assessed as reduction in diastolic blood pressure in guinea pig; format: organism-based; parameters: scale not given: the % may be the effect or the level left; details: in vivo

SMILES: CCNC(=O)[C@H]1O[C@@H](n2cnc3c(NCC(c4ccccc4)c4ccccc4)nc(CNC(=O)NCCN(C(C)C)C4CCCC4)nc32)[C@H](O)[C@@H]1O
clearance [2]: 45 mL/min/kg
Papp [3]: < 0.7 ×10⁻⁶ cm/s
CL [4]: 3500 mL/min/kg
Cmax [5]: 1.8 nM
logD [6]: 2
pIC50 [1]: 8.22
microsomal CLint [7]: 135 µL/min/mg

SMILES: CCNC(=O)[C@H]1O[C@@H](n2cnc3c(NCC(c4ccccc4)c4ccccc4)nc(C(=O)NCCN4CCCCC4)nc32)[C@H](O)[C@@H]1O
pIC50 [1]: 8.05

SMILES: COC[C@H]1O[C@@H](n2cnc3c(NCC(c4ccccc4)c4ccccc4)nc(CNC4CCCCC4)nc32)[C@H](O)[C@@H]1O
pIC50 [1]: 7.00

SMILES: COC[C@H]1O[C@@H](n2cnc3c(NCC(c4ccccc4)c4ccccc4)nc(NCCN4CCCCC4)nc32)[C@H](O)[C@@H]1O
pIC50 [1]: 7.22

SMILES: CCNC(=O)[C@H]1O[C@@H](n2cnc3c(NCC(c4ccccc4)c4ccccc4)nc(CNC(=O)NCCN4CCCCC4)nc32)[C@H](O)[C@@H]1O
pIC50 [1]: 7.77

SMILES: CCNC(=O)[C@H]1O[C@@H](n2cnc3c(NCC(c4ccccc4)c4ccccc4)nc(CNC(=O)NCCN(C4CCCCC4)C(C)(C)C)nc32)[C@H](O)[C@@H]1O
pIC50 [1]: 7.48

SMILES: CCNC(=O)[C@H]1O[C@@H](n2cnc3c(N)nc(NCCc4ccc(CCC(=O)O)cc4)nc32)[C@H](O)[C@@H]1O [CGS-21680]
clearance [2]: 14 mL/min/kg
Papp [3]: < 0.2 ×10⁻⁶ cm/s
CL [4]: 82 mL/min/kg
Cmax [5]: 271 nM
logD [6]: -0.15
microsomal CLint [7]: < 8 µL/min/mg
pIC50 [8]: 7.33
Activity [9]: Active
Activity [10]: 30%

SMILES: COC[C@H]1O[C@@H](n2cnc3c(NCC(c4ccccc4)c4ccccc4)nc(CCNC4CCCCC4)nc32)[C@H](O)[C@@H]1O
pIC50 [1]: 7.55

Further compounds by rising pIC50 [1], results first:

pIC50 [1]: 6.00
SMILES: COC[C@H]1O[C@@H](n2cnc3c(NCC(c4ccccc4)c4ccccc4)nc(NCCC4CCCCC4)nc32)[C@H](O)[C@@H]1O

pIC50 [1]: 6.00
SMILES: CCNC(=O)[C@H]1O[C@@H](n2cnc3c(NCC(c4ccccc4)c4ccccc4)nc(NCCC4CCCCC4)nc32)[C@H](O)[C@@H]1O

clearance [2]: 48 mL/min/kg
Papp [3]: 0.2 ×10⁻⁶ cm/s
CL [4]: 755 mL/min/kg
Cmax [5]: 20 nM
logD [6]: 2.1
pIC50 [1]: 7.19
microsomal CLint [7]: 62.6 µL/min/mg
SMILES: O=C(NCCN1CCCCC1)c1nc(NCC(c2ccccc2)c2ccccc2)c2ncn([C@@H]3O[C@H](CO)[C@@H](O)[C@H]3O)c2n1

pIC50 [1]: 7.96
SMILES: CCNC(=O)[C@H]1O[C@@H](n2cnc3c(NCC(c4ccccc4)c4ccccc4)nc(CNC(=O)NCCN(C(C)C)C(C)C)nc32)[C@H](O)[C@@H]1O
